Results: the NIST ThermoML archive (doi:10.1021/je300175w)
Where “and” joins values, the source holds several entries; their conditions need not be identical. Equal values may be shown once. ± gives the expanded uncertainty stated by the source.

Assay: mn = molality of the nth substance listed, in mol/kg
Settings: 101 kPa, Liquid; for mass density: Vibrating tube method; for speed of sound: Sing-around technique in a fixed-path interferometer

Compound: CC(C)(CO)CO [2,2-dimethyl-1,3-propanediol] + O
- mass density (273.15 K, m1 = 0.1001): 1000.25 ± 0.033 kg/m3
- mass density (273.15 K, m1 = 0.2006): 1000.57 ± 0.034 kg/m3
- mass density (273.15 K, m1 = 0.2997): 1000.91 ± 0.035 kg/m3
- mass density (273.15 K, m1 = 0.4021): 1001.28 ± 0.035 kg/m3
- mass density (273.15 K, m1 = 0.5001): 1001.66 ± 0.036 kg/m3
- mass density (273.15 K, m1 = 0.6007): 1002.07 ± 0.036 kg/m3
- speed of sound (278.15 K, m1 = 0.1001): 1435.8 ± 0.72 m/s
- speed of sound (278.15 K, m1 = 0.2006): 1445.4 ± 0.73 m/s
- speed of sound (278.15 K, m1 = 0.2997): 1454.5 ± 0.73 m/s
- speed of sound (278.15 K, m1 = 0.4021): 1463.8 ± 0.74 m/s
- speed of sound (278.15 K, m1 = 0.5001): 1472.5 ± 0.74 m/s
- speed of sound (278.15 K, m1 = 0.6007): 1481.3 ± 0.75 m/s
- speed of sound (283.15 K, m1 = 0.1001): 1456.2 ± 0.73 m/s
- speed of sound (283.15 K, m1 = 0.2006): 1464.9 ± 0.74 m/s
- speed of sound (283.15 K, m1 = 0.2997): 1473.3 ± 0.74 m/s and 1473.4 ± 0.74 m/s
- speed of sound (283.15 K, m1 = 0.4021): 1481.9 ± 0.74 m/s
- speed of sound (283.15 K, m1 = 0.5001): 1489.9 ± 0.75 m/s
- speed of sound (283.15 K, m1 = 0.6007): 1497.9 ± 0.75 m/s and 1498 ± 0.75 m/s
- mass density (283.15 K, m1 = 0.1001): 999.968 ± 0.033 kg/m3 and 999.967 ± 0.033 kg/m3
- mass density (283.15 K, m1 = 0.2006): 1000.26 ± 0.034 kg/m3
- mass density (283.15 K, m1 = 0.2997): 1000.57 ± 0.034 kg/m3
- mass density (283.15 K, m1 = 0.4021): 1000.92 ± 0.035 kg/m3
- mass density (283.15 K, m1 = 0.5001): 1001.26 ± 0.036 kg/m3
- mass density (283.15 K, m1 = 0.6007): 1001.63 ± 0.036 kg/m3 and 1001.64 ± 0.036 kg/m3
- speed of sound (288.15 K, m1 = 0.1001): 1474.1 ± 0.74 m/s and 1474.2 ± 0.74 m/s
- speed of sound (288.15 K, m1 = 0.2006): 1482.2 ± 0.74 m/s
- speed of sound (288.15 K, m1 = 0.2997): 1490 ± 0.75 m/s and 1489.9 ± 0.75 m/s
- speed of sound (288.15 K, m1 = 0.4021): 1497.8 ± 0.75 m/s
- speed of sound (288.15 K, m1 = 0.5001): 1505.2 ± 0.75 m/s
- speed of sound (288.15 K, m1 = 0.6007): 1512.6 ± 0.76 m/s
- mass density (288.15 K, m1 = 0.1001): 999.35 ± 0.034 kg/m3 and 999.351 ± 0.034 kg/m3
- mass density (288.15 K, m1 = 0.2006): 999.623 ± 0.034 kg/m3
- mass density (288.15 K, m1 = 0.2997): 999.911 ± 0.034 kg/m3 and 999.913 ± 0.034 kg/m3
- mass density (288.15 K, m1 = 0.4021): 1000.23 ± 0.035 kg/m3
- mass density (288.15 K, m1 = 0.5001): 1000.54 ± 0.035 kg/m3 and 1000.55 ± 0.035 kg/m3
- mass density (288.15 K, m1 = 0.6007): 1000.88 ± 0.036 kg/m3
- speed of sound (293.15 K, m1 = 0.1001): 1489.9 ± 0.74 m/s
- speed of sound (293.15 K, m1 = 0.2006): 1497.4 ± 0.75 m/s and 1497.3 ± 0.75 m/s
- speed of sound (293.15 K, m1 = 0.2997): 1504.5 ± 0.75 m/s
- speed of sound (293.15 K, m1 = 0.4021): 1511.8 ± 0.75 m/s
- speed of sound (293.15 K, m1 = 0.5001): 1518.5 ± 0.76 m/s
- speed of sound (293.15 K, m1 = 0.6007): 1525.3 ± 0.76 m/s
- mass density (293.15 K, m1 = 0.1001): 998.435 ± 0.034 kg/m3 and 998.438 ± 0.034 kg/m3 and 998.44 ± 0.034 kg/m3
- mass density (293.15 K, m1 = 0.2006): 998.688 ± 0.034 kg/m3 and 998.69 ± 0.034 kg/m3 and 998.693 ± 0.034 kg/m3
- mass density (293.15 K, m1 = 0.2997): 998.956 ± 0.035 kg/m3 and 998.958 ± 0.035 kg/m3 and 998.96 ± 0.035 kg/m3
- mass density (293.15 K, m1 = 0.4021): 999.245 ± 0.035 kg/m3 and 999.25 ± 0.035 kg/m3 and 999.252 ± 0.035 kg/m3
- mass density (293.15 K, m1 = 0.5001): 999.536 ± 0.036 kg/m3 and 999.541 ± 0.036 kg/m3 and 999.543 ± 0.036 kg/m3
- mass density (293.15 K, m1 = 0.6007): 999.846 ± 0.036 kg/m3 and 999.849 ± 0.036 kg/m3 and 999.851 ± 0.036 kg/m3
- speed of sound (298.15 K, m1 = 0.1001): 1503.7 ± 0.75 m/s
- speed of sound (298.15 K, m1 = 0.2006): 1510.5 ± 0.75 m/s and 1510.6 ± 0.75 m/s
- speed of sound (298.15 K, m1 = 0.2997): 1517.1 ± 0.75 m/s and 1517.2 ± 0.75 m/s
- speed of sound (298.15 K, m1 = 0.4021): 1523.8 ± 0.76 m/s and 1523.9 ± 0.76 m/s
- speed of sound (298.15 K, m1 = 0.5001): 1530 ± 0.76 m/s and 1530.1 ± 0.76 m/s
- speed of sound (298.15 K, m1 = 0.6007): 1536.2 ± 0.77 m/s and 1536.3 ± 0.77 m/s
- mass density (298.15 K, m1 = 0.1001): 997.263 ± 0.035 kg/m3 and 997.264 ± 0.035 kg/m3 and 997.261 ± 0.035 kg/m3
- mass density (298.15 K, m1 = 0.2006): 997.499 ± 0.035 kg/m3
- mass density (298.15 K, m1 = 0.2997): 997.744 ± 0.035 kg/m3 and 997.745 ± 0.035 kg/m3 and 997.742 ± 0.035 kg/m3
- mass density (298.15 K, m1 = 0.4021): 998.013 ± 0.036 kg/m3 and 998.015 ± 0.036 kg/m3
- mass density (298.15 K, m1 = 0.5001): 998.28 ± 0.036 kg/m3 and 998.279 ± 0.036 kg/m3 and 998.282 ± 0.036 kg/m3
- mass density (298.15 K, m1 = 0.6007): 998.56 ± 0.037 kg/m3 and 998.559 ± 0.037 kg/m3 and 998.562 ± 0.037 kg/m3
- speed of sound (303.15 K, m1 = 0.1001): 1515.6 ± 0.75 m/s
- speed of sound (303.15 K, m1 = 0.2006): 1521.9 ± 0.75 m/s
- speed of sound (303.15 K, m1 = 0.2997): 1528 ± 0.76 m/s
- speed of sound (303.15 K, m1 = 0.4021): 1534.1 ± 0.76 m/s
- speed of sound (303.15 K, m1 = 0.5001): 1539.9 ± 0.77 m/s and 1539.8 ± 0.77 m/s
- speed of sound (303.15 K, m1 = 0.6007): 1545.6 ± 0.77 m/s and 1545.5 ± 0.77 m/s
- mass density (303.15 K, m1 = 0.1001): 995.849 ± 0.035 kg/m3 and 995.85 ± 0.035 kg/m3
- mass density (303.15 K, m1 = 0.2006): 996.066 ± 0.036 kg/m3 and 996.067 ± 0.036 kg/m3
- mass density (303.15 K, m1 = 0.2997): 996.293 ± 0.036 kg/m3 and 996.294 ± 0.036 kg/m3
- mass density (303.15 K, m1 = 0.4021): 996.538 ± 0.036 kg/m3 and 996.539 ± 0.036 kg/m3
- mass density (303.15 K, m1 = 0.5001): 996.781 ± 0.037 kg/m3
- mass density (303.15 K, m1 = 0.6007): 997.037 ± 0.037 kg/m3 and 997.036 ± 0.037 kg/m3
- speed of sound (308.15 K, m1 = 0.1001): 1525.8 ± 0.75 m/s
- speed of sound (308.15 K, m1 = 0.2006): 1531.6 ± 0.76 m/s and 1531.5 ± 0.76 m/s
- speed of sound (308.15 K, m1 = 0.2997): 1537.2 ± 0.76 m/s and 1537.1 ± 0.76 m/s
- speed of sound (308.15 K, m1 = 0.4021): 1542.8 ± 0.77 m/s
- speed of sound (308.15 K, m1 = 0.5001): 1548 ± 0.77 m/s and 1548.1 ± 0.77 m/s
- speed of sound (308.15 K, m1 = 0.6007): 1553.2 ± 0.77 m/s and 1553.1 ± 0.77 m/s
- mass density (308.15 K, m1 = 0.1001): 994.216 ± 0.036 kg/m3 and 994.215 ± 0.036 kg/m3
- mass density (308.15 K, m1 = 0.2006): 994.415 ± 0.037 kg/m3 and 994.416 ± 0.037 kg/m3
- mass density (308.15 K, m1 = 0.2997): 994.624 ± 0.037 kg/m3 and 994.621 ± 0.037 kg/m3
- mass density (308.15 K, m1 = 0.4021): 994.845 ± 0.037 kg/m3 and 994.847 ± 0.037 kg/m3
- mass density (308.15 K, m1 = 0.5001): 995.067 ± 0.038 kg/m3 and 995.065 ± 0.038 kg/m3 and 995.068 ± 0.038 kg/m3
- mass density (308.15 K, m1 = 0.6007): 995.297 ± 0.038 kg/m3 and 995.296 ± 0.038 kg/m3 and 995.298 ± 0.038 kg/m3
- speed of sound (318.15 K, m1 = 0.1001): 1541.5 ± 0.76 m/s and 1541.4 ± 0.76 m/s
- speed of sound (318.15 K, m1 = 0.2006): 1546.4 ± 0.76 m/s and 1546.3 ± 0.76 m/s
- speed of sound (318.15 K, m1 = 0.2997): 1551 ± 0.77 m/s
- speed of sound (318.15 K, m1 = 0.4021): 1555.6 ± 0.77 m/s and 1555.7 ± 0.77 m/s
- speed of sound (318.15 K, m1 = 0.5001): 1559.9 ± 0.77 m/s and 1560 ± 0.77 m/s
- speed of sound (318.15 K, m1 = 0.6007): 1564.2 ± 0.78 m/s and 1564.3 ± 0.78 m/s
- mass density (318.15 K, m1 = 0.1001): 990.368 ± 0.038 kg/m3 and 990.367 ± 0.038 kg/m3
- mass density (318.15 K, m1 = 0.2006): 990.531 ± 0.038 kg/m3 and 990.532 ± 0.038 kg/m3 and 990.533 ± 0.038 kg/m3
- mass density (318.15 K, m1 = 0.2997): 990.701 ± 0.039 kg/m3 and 990.7 ± 0.039 kg/m3
- mass density (318.15 K, m1 = 0.4021): 990.883 ± 0.039 kg/m3 and 990.882 ± 0.039 kg/m3
- mass density (318.15 K, m1 = 0.5001): 991.06 ± 0.039 kg/m3 and 991.057 ± 0.039 kg/m3 and 991.058 ± 0.039 kg/m3
- mass density (318.15 K, m1 = 0.6007): 991.242 ± 0.04 kg/m3 and 991.241 ± 0.04 kg/m3
